Test results taken from US7628987B2, “Vectors derived from antibodies for transferring substances into cells” (Institut Pasteur, priority 1997, dated 2009).

System: CCL39 cells
Experiment: Polyfection in the presence of glycerol, CCL39 cells
Assay type: cell-based, hamster
Details: glycerol 0.23 M, charge ratio 2.2, 5 h30
Method: Further, by way of comparison, transfection was carried out in the presence of polyethylene […] (PEI), 25 kDa (Aldrich, St Louis, Mo.) in a charge ratio of 2.2 in the presence of glycerol and 5 in the absence of glycerol.

SMILES: OCC(O)CO [glycerol]
- increase in polyfection (luciferase activity) induced by glycerol: 38 factor
